Laboratory results as given in paper PMC7221574 (Molecules, 2020).
Where two headings read alike, the source gives them in different places.

Experiments:
[1] = tested on: A549; assay: In vitro antiproliferative activity, SRB assay, A549; format: cell-based, human; conditions: for IC50: human lung adenocarcinoma, 72 h, SRB, mean ± SD; for selectivity index (SI) A549: SI = (IC50 BALB/3T3)/(IC50 A549)
Procedure: (§1) The A549 cell line was purchased from the European Collection of Authenticated Cell Cultures (ECACC, Salisbury, UK). The MCF-7, LoVo and LoVo/DX cell lines was purchased from American Type Culture Collection (ATCC, Manassas, VA, USA). All the cell lines are maintained in the Institute of Immunology and Experimental Therapy (IIET), Wroclaw, Poland.
(§2) Human lung adenocarcinoma cell line was cultured in a mixture of OptiMEM and RPMI 1640 (1:1) medium (IIET, Wroclaw, Poland), supplemented with 5% fetal bovine serum HyClone (GE Healthcare, USA) and 2 mM L-glutamine (Sigma-Aldrich, Germany). Human breast adenocarcinoma cell line was cultured in a mixture of Eagle medium (IIET, Wroclaw, Poland), supplemented with 10% fetal bovine serum, 2 mM L-glutamine, 8 μg/mL insulin and 1% amino acids (Sigma-Aldrich, Germany). Human colon adenocarcinoma cell lines were cultured in a mixture of OptiMEM and RPMI 1640 (1:1) medium (IIET, Wroclaw, Poland), supplemented with 5% fetal bovine serum HyClone (GE Healthcare, USA), 2 mM L-glutamine, 1 mM sodium pyruvate (Sigma-Aldrich, Germany) and 10 μg/100 mL doxorubicin (Accord) for LoVo/DX. Murine embryonic fibroblast cells were cultured in Dulbecco medium (Gibco), supplemented with 10% fetal bovine serum (GE Healthcare, USA) and 2 mM L-glutamine (Sigma-Aldrich, Germany). All culture media contained antibiotics: 100 U/mL penicillin (Polfa-Tarchomin, Poland) and 0.1 mg/mL streptomycin (Sigma Aldrich, Germany). All cell lines were cultured during entire experiment in humid atmosphere at 37 °C and 5% CO2.
(§3) All cell lines were exposed to each tested agent at different concentrations in the range 100–0.001 μg/mL for 72 h. The cells were also exposed to the reference drug cisplatin (Teva Pharmaceuticals, Poland) and doxorubicin (Accord Healthcare Limited, UK). Additionally, all cell lines were exposed to DMSO (solvent used for tested compounds) (POCh, Poland) at concentrations corresponding to those present in dilutions of tested agents. After 72 h sulforhodamine B assay (SRB) was performed.
(§4) After 72 h of incubation with the tested compounds, the cells were fixed in situ by gently adding of 50 μL per well of cold 50% trichloroacetic acid TCA (POCh, Poland) and were incubated at room temperature for one hour. Then the wells were washed four times with water and air dried. Next, 50 μL of 0.1% solution of sulforhodamine B (Sigma-Aldrich, Germany) in 1% acetic acid (POCh, Poland) were added to each well and were incubated at room temperature for 0.5 h. After incubation time, unbound dye was removed by washing plates four times with 1% acetic acid, whereas the stain bound to cells was solubilized with 150 μL of 10 mM Tris base (Sigma-Aldrich, Germany). Absorbance of each solution was read from a Synergy H4 Hybrid Multi-Mode Microplate Reader (BioTek Instruments, USA) at the 540 nm wavelength.

[2] = tested on: MCF-7; assay: In vitro antiproliferative activity, SRB assay, MCF-7; format: cell-based, human; conditions: for IC50: human breast adenocarcinoma, 72 h, SRB, mean ± SD; for selectivity index (SI) MCF-7: SI = (IC50 BALB/3T3)/(IC50 MCF-7)
Procedure: as §1, §2, §3, §4

[3] = tested on: LoVo; assay: In vitro antiproliferative activity, SRB assay, LoVo; format: cell-based, human; conditions: for IC50: human colon adenocarcinoma, 72 h, SRB, mean ± SD; for selectivity index (SI) LoVo: SI = (IC50 BALB/3T3)/(IC50 LoVo)
Procedure: as §1, §2, §3, §4

[4] = tested on: LoVo/DX; assay: cells; format: cell-based, human; conditions: for RI (resistance index): RI = (IC50 for LoVo/DX)/(IC50 for LoVo); for IC50: 72 h, read-out: IC50 LoVo/DX
Procedure: as §1, §2, §3, §4

[5] = tested on: BALB/3T3; assay: In vitro antiproliferative activity, SRB assay, normal fibroblasts BALB/3T3; format: cell-based, murine; conditions: for IC50: normal murine embryonic fibroblasts, 72 h, SRB, mean ± SD
Procedure: as §1, §2, §3, §4

SMILES	IC50 [1] [nM]	IC50 [2] [nM]	IC50 [3] [nM]	RI (resistance index) [4]	IC50 ([4]; doxorubicin-resistant colon adenocarcinoma subline, SRB, mean ± SD) [nM]	IC50 [5] [nM]	IC50 ([1]; Homo sapiens, A549, 72 h) [nM]	IC50 ([2]; Homo sapiens, MCF7, 72 h) [nM]	IC50 ([3]; Homo sapiens, LoVo) [nM]	IC50 ([4]; Homo sapiens, LoVo/DX) [nM]	IC50 ([5]; Mus musculus, BALB/3T3) [nM]	selectivity index (SI) LoVo [3]	selectivity index (SI) A549 [1]	selectivity index (SI) MCF-7 [2]	selectivity index (SI), cancer cell lines not named at the place ([5]; SI = (IC50 BALB/3T3)/(IC50 respective cancerous cell line), range over several lines)
N.N.[Cl][Pt][Cl] [Cisplatin, reference compound]	5740 ± 968	7140 ± 1220	7080 ± 1600	1.2	8340 ± 1120	5665 ± 31.8	–	–	–	–	–	–	–	–	–
CNc1ccc2c(cc1=O)[C@@H](NC(C)=O)CCc1cc(OC)c(OC)c(OC)c1-2 [Compound 2, 10-methylamino-10-demethoxycolchicine]	–	–	–	63.0	–	–	10.8 ± 1.3	8.6 ± 1.3	4.3 ± 1.3	271 ± 99.9	10.8 ± 1.3	–	–	–	–
CNc1ccc2c(cc1=O)[C@@H](N)CCc1cc(OC)c(OC)c(OC)c1-2 [Compound 3, N-deacetyl-10-methylamino-10-demethoxycolchicine]	16.9 ± 2.8	19.7 ± 1.7	14 ± 1.7	9.2	–	–	< 20	< 20	< 20	129 ± 11.8	19.7 ± 7	–	–	–	–
CCC(=O)NC1CCc2cc(OC)c(OC)c(OC)c2-c2ccc(NC)c(=O)cc21 (stereo not shown) [Compound 4]	–	–	–	28.0	–	–	14.6 ± 2.4	14.6 ± 1.5	9.7 ± 1.5	272 ± 104	19.4 ± 4.1	–	–	–	–
CCCC(=O)N[C@H]1CCc2cc(OC)c(OC)c(OC)c2-c2ccc(NC)c(=O)cc21 [Compound 5]	–	–	–	20.2	–	–	14.1 ± 2.4	14.1 ± 1.4	9.6 ± 0.5	195 ± 51.9	16.4 ± 3.5	–	–	–	–
CCCCC(=O)NC1CCc2cc(OC)c(OC)c(OC)c2-c2ccc(NC)c(=O)cc21 (stereo not shown) [Compound 6]	–	–	–	15.0	–	–	13.6 ± 1.4	15.9 ± 6.6	6.8 ± 3.9	102 ± 20.7	13.6 ± 2.3	–	–	–	–
CCCCCCCCCCCCCCCC(=O)N[C@H]1CCc2cc(OC)c(OC)c(OC)c2-c2ccc(NC)c(=O)cc21 [Compound 7]	–	–	–	39.0	–	–	614 ± 194	465 ± 187	62.4 ± 16.9	2440 ± 923	546 ± 104	over 6	–	–	–
CNc1ccc2c(cc1=O)C(NC(=O)C(C)C)CCc1cc(OC)c(OC)c(OC)c1-2 (stereo not shown) [Compound 8]	–	–	–	24.3	–	–	11.7 ± 1.4	18.8 ± 9.9	7 ± 1.4	171 ± 41.3	28.1 ± 10.8	1.5–4.0	1.5–4.0	1.5–4.0	–
CNc1ccc2c(cc1=O)C(NC(=O)CCl)CCc1cc(OC)c(OC)c(OC)c1-2 (stereo not shown) [Compound 9]	–	–	–	35.2	–	–	11.6 ± 2.8	9.2 ± 1.4	1.8 ± 0.4	62.4 ± 6.7	11.6 ± 2.3	over 6	–	–	–
CNc1ccc2c(cc1=O)[C@@H](NC(=O)C(Cl)Cl)CCc1cc(OC)c(OC)c(OC)c1-2 [Compound 10]	–	–	–	25.8	–	–	8.6 ± 1.3	8.6 ± 1.2	1.5 ± 0.5	38.5 ± 21.6	10.7 ± 1.3	over 6	–	–	–
CNc1ccc2c(cc1=O)C(NC(=O)CCC(F)(F)F)CCc1cc(OC)c(OC)c(OC)c1-2 (stereo not shown) [Compound 11, 4,4,4-trifluorobutyric amide of 10-N-methylaminocolchicine]	14.6 ± 2.1	12.7 ± 0.4	10.4 ± 1.3	27.8	–	–	10.4 to 14.6	10.4 to 14.6	10.4 to 14.6	290 ± 165	81.3 ± 20.4	higher than 5	higher than 5	higher than 5	5.6–7.8
